# In ChEMBL document CHEMBL1201862, “PubChem BioAssay data set” (2004):
# Calls of active or inactive are those of the source.
# What was measured:
# [1] = Luminescence Cell-Based Dose Confirmation HTS to Identify Activators of 5'UTR Stem-Loop Driven Alpha-Synuclein mRNA Translation in H4 Neuroglioblastoma Cells. [Related pubchem assays: 1829 (Project Summary), 1814 (Primary HTS)]; assay type: functional
# [2] = Luminescence Cell-Based Dose Response HTS to Identify Activators of Luciferase Translation or Activity in H4 […] Cells. [Related pubchem assays: 1829 (Project Summary), 1814 (Primary HTS)]; assay type: functional
# H4 = test: Luminescence Cell-Based Dose Response HTS to Identify Activators of 5'UTR Stem-Loop Driven Prion Protein mRNA Translation in H4 Neuroglioblastoma Cells. [Related pubchem assays: 1829 (Project Summary), 1814 (Primary HTS)]; assay type: functional; conditions: Homo sapiens
# [3] = biological target: T1, Corticotropin-releasing factor receptor 2/Corticotropin-releasing factor-binding protein (Homo sapiens, UniProt P24387+Q13324); test: Dose Response confirmation of uHTS hits for small molecule antagonists of the CRF-binding protein and CRF-R2 receptor complex.; assay type: functional; conditions: read-out: IC50_Mean
# T1 sequence (Q13324 whole entry): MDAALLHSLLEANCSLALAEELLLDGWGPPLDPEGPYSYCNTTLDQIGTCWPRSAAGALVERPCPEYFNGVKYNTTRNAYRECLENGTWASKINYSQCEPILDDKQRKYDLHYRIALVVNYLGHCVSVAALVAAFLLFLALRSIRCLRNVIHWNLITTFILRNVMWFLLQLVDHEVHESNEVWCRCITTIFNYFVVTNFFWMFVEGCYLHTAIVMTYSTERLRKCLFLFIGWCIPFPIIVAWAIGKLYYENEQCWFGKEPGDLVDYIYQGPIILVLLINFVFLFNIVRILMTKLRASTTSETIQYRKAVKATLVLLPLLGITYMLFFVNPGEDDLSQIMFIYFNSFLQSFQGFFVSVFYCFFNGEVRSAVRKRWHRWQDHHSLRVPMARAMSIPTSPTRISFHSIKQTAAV
# T1 sequence (P24387 whole entry): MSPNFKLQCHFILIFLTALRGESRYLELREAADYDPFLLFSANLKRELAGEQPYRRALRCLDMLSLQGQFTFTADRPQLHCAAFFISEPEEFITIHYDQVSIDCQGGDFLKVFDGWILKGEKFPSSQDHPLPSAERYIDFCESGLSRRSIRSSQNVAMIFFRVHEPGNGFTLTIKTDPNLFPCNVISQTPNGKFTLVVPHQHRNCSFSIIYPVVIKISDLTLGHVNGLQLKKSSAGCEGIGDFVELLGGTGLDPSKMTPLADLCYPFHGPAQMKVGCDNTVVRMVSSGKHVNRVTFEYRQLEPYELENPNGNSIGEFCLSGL
# [4] = biological target: T1, Corticotropin-releasing factor receptor 2/Corticotropin-releasing factor-binding protein; test: activators of CRF receptor 2 with binding protein – uHTS hits, confirmation (AID 602473); assay type: functional; conditions: read-out: EC50_Mean
# [5] = microbe, parasite or virus in culture; assay type: functional; conditions: Mycobacterium tuberculosis
# [6] = biological target: T2, Polyadenylate-binding protein 1 (Homo sapiens, UniProt P11940); test: PABP1 MLLE–PAM2 interaction inhibitors, dose response, miRNA deadenylation inhibitor project, biochemical, fluorescence polarization, Cy5-PAM2 peptide, secondary (AID 602260); assay type: functional; conditions: read-out: IC50_Mean
# [7] = biological target: T2, Polyadenylate-binding protein 1; test: PABP1 MLLE–PAM2 binding inhibitor potency, dose response, biochemical, fluorescence polarization, FITC-PAM2 peptide (AID 602259); assay type: functional; conditions: read-out: IC50_Mean
# Cytochrome P450 2C19 = Cytochrome P450 2C19 (Homo sapiens, UniProt P33261); test: Cytochrome panel assay with activity outcomes. Panel member name: p450-cyp2c19 Compounds with AC50 equal or less than 10 uM are considered active; assay type: functional; conditions: read-out: AC50
# [8] = P. falciparum Dd2 growth inhibitors, dose response, SYBR Green, cherry-picked samples (AID 1159567); assay type: functional, cell-based
# T2 sequence (P11940 whole entry): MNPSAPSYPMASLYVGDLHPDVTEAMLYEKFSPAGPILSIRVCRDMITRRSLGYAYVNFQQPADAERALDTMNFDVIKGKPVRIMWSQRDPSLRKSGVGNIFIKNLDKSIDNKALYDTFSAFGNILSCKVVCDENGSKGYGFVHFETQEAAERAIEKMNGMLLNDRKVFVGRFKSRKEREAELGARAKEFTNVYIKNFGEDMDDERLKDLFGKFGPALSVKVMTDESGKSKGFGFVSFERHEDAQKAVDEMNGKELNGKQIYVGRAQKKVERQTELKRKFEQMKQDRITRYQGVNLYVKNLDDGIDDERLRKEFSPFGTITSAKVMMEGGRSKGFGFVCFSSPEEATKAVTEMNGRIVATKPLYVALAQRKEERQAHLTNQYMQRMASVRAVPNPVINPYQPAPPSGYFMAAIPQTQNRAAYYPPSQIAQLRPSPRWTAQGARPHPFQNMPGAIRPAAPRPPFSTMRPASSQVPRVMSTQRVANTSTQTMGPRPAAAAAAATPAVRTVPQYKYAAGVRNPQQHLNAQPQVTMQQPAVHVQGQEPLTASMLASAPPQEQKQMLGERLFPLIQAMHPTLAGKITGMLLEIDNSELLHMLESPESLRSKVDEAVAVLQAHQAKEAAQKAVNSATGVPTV
# Chain of Cytochrome P450 2C19 (P33261 whole entry): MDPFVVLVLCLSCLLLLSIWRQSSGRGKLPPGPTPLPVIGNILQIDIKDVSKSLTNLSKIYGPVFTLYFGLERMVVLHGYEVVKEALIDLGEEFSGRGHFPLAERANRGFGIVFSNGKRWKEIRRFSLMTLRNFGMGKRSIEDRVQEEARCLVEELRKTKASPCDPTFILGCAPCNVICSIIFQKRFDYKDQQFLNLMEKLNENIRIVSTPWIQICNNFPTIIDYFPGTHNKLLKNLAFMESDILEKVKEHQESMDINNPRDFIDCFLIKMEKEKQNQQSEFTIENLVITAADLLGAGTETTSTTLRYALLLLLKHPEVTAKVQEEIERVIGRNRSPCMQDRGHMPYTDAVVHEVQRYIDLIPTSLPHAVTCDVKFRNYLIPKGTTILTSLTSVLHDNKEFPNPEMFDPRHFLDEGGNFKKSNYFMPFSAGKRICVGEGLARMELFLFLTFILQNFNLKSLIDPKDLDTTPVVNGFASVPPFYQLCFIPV
compound,measurement,setting,value
Cc1c(-c2ccc(Cl)cc2)[n+]([O-])c(-c2ccccc2)c[n+]1[O-],EC50,[1],> 120 µM (not active)
same,EC50,[2],> 120 µM (not active)
same,EC50,H4,> 120 µM (not active)
same,IC50,[3],> 47.1 µM (inactive)
same,EC50,[4],> 53 µM (inactive)
Cc1ccc(C(=O)c2nc3c(n2O)CCCC3)cc1,EC50,[1],> 120 µM (not active)
same,EC50,[2],> 120 µM (not active)
same,EC50,H4,25.7 µM (active)
O=C(/C=C/c1ccc(O)c([N+](=O)[O-])c1)c1ccc2ccccc2c1,EC50,[1],16.6 µM (active)
same,EC50,[2],14.5 µM (active)
same,EC50,H4,17.9 µM (active)
same,CC50,[5],> 40 µM (active)
COc1cccc(Nc2ccc([N+](=O)[O-])c3nonc23)c1,CC50,[5],> 40 µM (active)
CC(Oc1ccc2c(c1)c1ccnc3c4ccccc4c(=O)n2c13)C(=O)NCCN1CCOCC1 (stereo not given),EC50,[1],19.6 µM (active)
same,EC50,[2],12.5 µM (active)
same,EC50,H4,> 120 µM (not active)
COc1cccc(NC(=S)N/N=C2/CCCCc3ccccc32)c1,EC50,[1],7.09 µM (active)
same,EC50,[2],8.02 µM (active)
same,EC50,H4,33.6 µM (active)
same,IC50,[6],> 66 µM (inactive)
same,IC50,[7],> 66 µM (inactive)
OCC(O)/C=N/Nc1nc(Nc2ccccc2)nc(Nc2ccccc2)n1 (stereo not given),CC50,[5],> 40 µM (active)
COc1ccc(-c2nn(-c3ccccc3)cc2/C=N/NC(=O)c2ccc3c(c2)OCO3)cc1,EC50,[1],18.3 µM (active)
same,EC50,[2],12.2 µM (active)
same,EC50,H4,18.5 µM (active)
same,AC50,Cytochrome P450 2C19,2.24 µM (inconclusive)
C/C(=N\NC(=O)CN1CCCCC1)c1cccc([N+](=O)[O-])c1,EC50,[1],13.6 µM (active)
same,EC50,[2],9.5 µM (active)
same,EC50,H4,26.9 µM (active)
COc1ccc2c3c([nH]c2c1)[C@H](CO)N(Cc1cccc(Cl)c1)CC31CCN(C(C)=O)CC1,AC50,[8],4.26 µM (active)
